Experimental data: publication PMC2408963, “A Detailed Analysis of the Murine TAP Transporter Substrate Specificity” (PLoS ONE, 2008)
Where no end group is shown, it is not given here.

Tests used:
human TAP complexes = test: Fluorescence polarization assay with insect cell-expressed human TAP; format: binding
[1] = test system: murine TAP1 or TAP2 protein alone
Description: Using the same insect cell system for TAP expression, a novel assay was established which is based on detecting fluorescence polarization rather than the activity of a radioactive tracer. […] To establish a fluorescence polarization assay, we determined the concentrations of reporter peptide and microsomes yielding the highest specific binding signal (mP reading).

## R9L-FITC: reporter peptide in which position 6 (Ser) of R9L was substituted by a Cys residue coupled to a fluorescein group (RRYNAC(fluorescein)TEL)
Human TAP complexes
  affinity for human TAP compared with murine TAP: identical affinity
[1]
  binding to microsomes containing either murine TAP1 or TAP2 protein alone: did not bind
